Results on two compounds are retold here after US20230065562A1, “DUAL CONTROLS FOR THERAPEUTIC CELL ACTIVATION OR ELIMINATION” (Bellicum Pharmaceuticals, Inc., priority 2015, published 2023).

The structures appear in SMILES notation.

Data set [1] relates to iCasp9-transduced, CD19-selected allodepleted T cells. The data set can be described thus: Induction of apoptosis with AP20187 in gene-modified allodepleted T cells (annexin V/7-AAD). The data set is classed as cell-based, human. The procedure:
Suicide gene functionality was assessed by adding a small molecule synthetic homodimerizer, AP20187 (Ariad Pharmaceuticals; Cambridge, Mass.), at 10 nM final concentration the day following CD19 immunomagnetic selection. Cells were stained with annexin V and 7-amino-actinomycin (7-AAD)(BD Pharmingen) at 24 hours and analyzed by flow cytometry. Cells negative for both annexin V and 7-AAD were considered viable, cells that were annexin V positive were apoptotic, and cells that were both annexin V and 7-AAD positive were necrotic. The percentage killing induced by dimerization was corrected for baseline viability as follows: Percentage killing=100%−(% Viability in AP20187-treated cells÷% Viability in nontreated cells).
Cells were maintained in T cell medium containing 50 U/ml IL-2 until 22 days after transduction. A portion of cells was reactivated on 24-well plates coated with […] OKT3 and 1 µg/ml anti-CD28 (Clone CD28.2, BD Pharmingen, San Jose, Calif.) for 48 to 72 hours. CD19 expression and suicide gene function in both reactivated and non-reactivated cells were measured on day 24 or 25 post transduction.
The day following immunomagnetic selection, 10 nM of the chemical inducer of dimerization, AP20187, was added to induce apoptosis, which appeared within 24 hours. […] Killing efficiency after correction for baseline viability was about 92.9%±3.8%. Large-scale CD19 selection produced cells that were killed with similar efficiency as small-scale selection: mean viability with and without AP20187, and percentage killing, in large and small scale were about 3.9%, about 84.0%, about 95.4% (n=3) and about 6.6%, about 79.3%, about 91.4% (n=5) respectively. AP20187 was non-toxic to non-transduced cells: viability with and without AP20187 was about 86%±9% and 87%±8% respectively (n=6).
To assess the stability of transgene expression and function, cells were maintained in T cell culture medium and low dose IL-2 (50 U/ml) until 24 days after transduction. A portion of cells was then reactivated with OKT3/anti-CD28. CD19 expression was analyzed by flow cytometry 48 to 72 hours later, and suicide gene function was assessed by treatment with 10 nM AP20187. The obtained are for cells from day 5 post transduction (ie, 1 day after CD 19 selection) and day 24 post transduction, with or without 48-72 hours of reactivation (5 experiments). In 2 experiments, CD25 selection was performed after OKT3/αCD28 activation to further enrich activated cells. Error bars represent standard deviation. * indicates p<0.05 when compared to cells from day 5 post transduction. By day 24, surface CD19 expression fell from about 98%±1% to about 88%±4% (p<0.05) with a parallel decrease in mean fluorescence intensity (MFI) from 793±128 to 478±107 (p<0.05) (see FIG. 13B). Similarly, there was a significant reduction in suicide gene function: residual viability was 19.6±5.6% following treatment with AP20187; after correction for baseline viability of 54.8±20.9%, this equated to killing efficiency of only 63.1±6.2%.

Data set [2] addresses iRmC9 (pBP1327 & pBP1328) (Homo sapiens, UniProt P42345+P62942, F37V). The data set can be described thus: SRα-SEAP assay of drug specificity, iRmC9 switch, 293 cells. Conditions: SRα-SEAP reporter.
The subject of data set [3] is iC9 T cells (pBP0220, GFP-Fluc). The data set is described as follows: In vivo apoptotic activation in NSG mice, iC9 T cells (IVIS imaging, spleen FACS). More on the design: species or system mouse. The procedure:
PBMCs from donor 676 were activated and co-transduced with one of the off-switches and GFP-Fluc retroviruses. Eleven days after transduction, cells were analyzed for transduction efficiency with GFP and anti-CD3/anti-CD19 antibodies (FIG. 109A). […] The CD19^+ MFI for the different T cell populations were: iC9=15.07, iRC9=14.38, and iRmC9=13.39. The cells were collected, counted, washed, and resuspended at 1×10^6 cells in 100 μl PBS for each tail vein mouse injection (Table 10) (time=−18 hr). […] IVIS imaging was performed at −14, 0, 5, 24 and 29 hours. Mice were sacrificed and spleens were collected for FACS analysis with hCD3, hCD19 and mCD45 antibodies. […] The higher percentage of remaining iRmC9 T cells observed may be due to an artifact of normalizing the no drug group.
PBMCs from donor 676 were activated and co-transduced with retroviruses encoding the pBP0220, 1310, 1327 vectors and the GFP-Fluc plasmid. (FIG. 109A) Eleven days post transduction, the cells were analyzed for CD19 and GFP transduction efficiency prior to injection into mice. (FIGS. 109B & C) NSG mice were injected i.v. with 107 T cells co-transduced with GFP-Fluc per mouse and suicide drugs were injected i.p. the next day. Bioluminescence of cells was assessed at −14, 0, 5, 24, and 29 hours post-drug administration. […]

The next data set deals with 293 cells. The data set can be described thus: SEAP assay: iMC (tandem FKBP) scaffold plus FRBL2-Caspase-9. The data set is classed as cell-based. Conditions: tandem FKBPs (iMC) present. On the procedure: FIGS. 16A and 16B are line graphs showing that tandem FKBP scaffold mediates FRBL2. Caspase activation in the presence of rapalogs. FIG. 16A. HEK-293 cells were transfected with 1 μg each of SRα-SEAP reporter plasmid, Δmyr.iMC.2A-anti-CD19.CAR.CD3ζ (pBP0608), and FRBL2. Caspase-9 (pBP0467). […] After ON incubation, cell supernatants were assayed for SEAP activity, as previously described. FIG. 16B. Similar to the experiment described in (FIG. 16A), except that cells were transfected with a membrane-localized (myristoylated) iMC.2A-CD19.CAR.CD3ζ (pBP0609), instead of non-myristoylated Δmyr.iMC.2A-CD19.CAR.CD3ζ (pBP0608).
In a second test for rapalog-mediated scaffold-based activation of Caspase-9, 293 cells were transiently transfected with SRα-SEAP reporter plasmid, plus myristoylated or non-myristoylated inducible iMC co-expressed with 1st generation anti-CD19 CAR, plus FRBL2-fused Caspase-9 (plasmid pBP0467) (FIG. 16).

Setting [4] is: 10 nM AP20187, day after CD19 selection.
Where [5] appears, read: day 24 post transduction, non-reactivated.
[6] abbreviates: large-scale CD19 selection (n=3).
[7] abbreviates: small-scale CD19 selection (n=5).

Chain of iRmC9 (pBP1327 & pBP1328) (P42345 2025-2113): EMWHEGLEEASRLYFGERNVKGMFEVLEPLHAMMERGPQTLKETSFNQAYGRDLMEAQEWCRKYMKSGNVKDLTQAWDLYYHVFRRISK
Chain of iRmC9 (pBP1327 & pBP1328) (P62942 2-107 F37V): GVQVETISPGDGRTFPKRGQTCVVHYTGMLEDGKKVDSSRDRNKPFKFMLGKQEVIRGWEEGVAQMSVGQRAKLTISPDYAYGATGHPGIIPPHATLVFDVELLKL
Chain of iRmC9 (pBP1327 & pBP1328) (P55211 135-416 partner limits assumed): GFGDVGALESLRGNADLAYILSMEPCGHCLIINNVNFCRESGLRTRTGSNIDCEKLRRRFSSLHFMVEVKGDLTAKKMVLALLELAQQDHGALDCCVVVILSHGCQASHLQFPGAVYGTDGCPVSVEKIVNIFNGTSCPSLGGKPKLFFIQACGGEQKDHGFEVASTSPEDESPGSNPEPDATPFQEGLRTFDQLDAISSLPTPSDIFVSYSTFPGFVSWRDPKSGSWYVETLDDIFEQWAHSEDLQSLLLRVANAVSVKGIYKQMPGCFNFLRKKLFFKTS

As for `CC[C@H](C(=O)N1CCCC[C@H]1C(=O)O[C@H](CCc1ccc(OC)c(OC)c1)c1cccc(OCC(=O)NCC(CNC(=O)COc2cccc([C@@H](CCc3ccc(OC)c(OC)c3)OC(=O)[C@@H]3CCCCN3C(=O)[C@@H](CC)c3cc(OC)c(OC)c(OC)c3)c2)CN(C)C)c1)c1cc(OC)c(OC)c(OC)c1` [AP20187], in data set [1] (setting [4]), the “killing efficiency after correction for baseline viability” value was “about 92.9%±3.8”; the “viable cells (annexin V and 7-AAD negative) at 24 hours” value is given as “about 5.5%±2.5”. The compound further yielded a killing in data set [1] (CD25 negative fraction after reactivation) of 78.6±9.1%. Moreover, the killing efficiency in data set [1] (OKT3/αCD28-reactivated cells, day 24 or 25) is recorded as ~84.6%±8.0. Moreover, the killing efficiency in data set [1] (day 5 post transduction) is on record as 93.1±3.5%. In data set [1] (setting [5]), the killing efficiency is on record as 63.1±6.2% and the “residual viability following AP20187” value stood at 19.6±5.6%. In data set [1] (iCasp9-modified donor T cells), the “apoptosis after treatment with dimerizer” value was more than 90%. In data set [1] (setting [6]), the “mean viability with AP20187” value is “about 3.9%” and the percentage killing result is on record as “about 95.4%”. In data set [1] (setting [7]), the “mean viability with AP20187” value is listed as “about 6.6%” and the percentage killing result was “about 91.4%”.
For `CC[C@H](C(=O)N1CCCC[C@H]1C(=O)O[C@H](CCc1ccc(OC)c(OC)c1)c1cccc(OCC(=O)NCCNC(=O)COc2cccc([C@@H](CCc3ccc(OC)c(OC)c3)OC(=O)[C@@H]3CCCCN3C(=O)[C@@H](CC)c3cc(OC)c(OC)c(OC)c3)c2)c1)c1cc(OC)c(OC)c(OC)c1` [rimiducid], in data set [2], the “activation of the iRmC9 switch” value is listed as “can activate”. Also, in data set [3] (5 mg/kg rimiducid i.p., spleen FACS, FIG. 109D), the “iC9 T cells remained in splenocytes compared to no drug- or rapamycin-treated groups” value is on record as approximately 20%. Further, the “removal of iC9 T cells / bioluminescence signal (IVIS imaging)” value in data set [3] (NSG mice, 5 mg/kg rimiducid or 10 mg/kg rapamycin i.p., FIGS. 109B & C) is listed as “induced significant removal”. Further, in the data set on 293 cells, the “activation of FRBL2-Caspase-9” value is “not activated”.
